Assay results as given in patent EP1355153A1, “Screening method for agents against cardiovascular diseases” (NAMAXX GENOMICS GMBH, priority 2002, dated 2003).

System: heart of the chick embryo
Experiment: Relative stroke volume of the chick embryo heart by video microscopy (decrease by isoproterenol, rescue by metoprolol)
Type: in vivo, chicken
Settings: for % remaining stroke volume: 50 µL isoproterenol 1 mM topically, followed by 20 µL metoprolol 15 mM or water-dimethylsulfoxide mix (isoproterenol alone), after 2 minutes at 22°C; for reduction of the stroke volume: isoproterenol alone or applied with metoprolol
Description: Fertilized Bovans Goldline brown chicken eggs (12 hrs after laying, kept at 18°C) were incubated at 38°C and 45 % humidity during 72 hrs (Motorbruter 126-EM, Bruja). The eggshell was then broken and the egg white, the yolk and the embryo were removed and placed in a Petri dish (Greiner, 9.4 cm diameter). This Petri dish was placed in a bigger Petri dish (Greiner, 14 cm diameter) containing water and an incubation is performed at 38°C and 45 % humidity for 24 hrs or 48 hrs. The relative stroke volume of the heart of the chick embryo was then estimated by video microscopy using a binocular (SZX-ZB9, Olympus), a CCD camera (F-View, Soft Imaging Systems) and an image analysis software (AnalySIS Auto Software, Soft Imaging Systems). The beating heart of the embryo was filmed and the grey density of the heart area under systole was subtracted from the density of the heart area under diastole. By performing said subtraction, the so-called "relative stroke volume" is obtained, which represents a relative value instead of a volume.
50 µL of a isoproterenol (Sigma) solution (1mM, water) was then topically applied on the surface of the embryo, followed by 20 µL metoprolol (Sigma) solution (15 mM, Vol-90 % water, 10 % dimethylsulfoxide). Metoprolol is a marketed drug for human use against heart failure (M. Andrejak and M. Slama, Presse Med. 27:2025-30 (1998)). After 2 minutes at 22°C, the heart was monitored and the relative stroke volume was measured. The same experiment was performed by replacing the metoprolol solution by a water-dimethylsulfoxide mix (90 %-10 %) in order to investigate the effect of isoproterenol alone. Controls were performed with untreated embryos. The test groups of the 96 hrs old embryos (Table 1) comprise seven embryos each, while the test groups of the 120 hrs old embryos (Table 2) comprise five embryos each.

[1] = 96 hrs old embryos, after 2 minutes
[2] = 120 hrs old embryos, after 2 minutes incubation

Row | SMILES | % remaining stroke volume (96 hrs old embryos (n=7)) | reduction of the stroke volume [1] | % remaining stroke volume (120 hrs old embryos (n=5)) | reduction of the stroke volume [2]
1 | CC(C)NCC(O)c1ccc(O)c(O)c1 (centres unmarked) [Isoproterenol, isoproterenol] | 25,5% | 75% | 27,2% | 72%
2 | COCCc1ccc(OCC(O)CNC(C)C)cc1 (centres unmarked) [metoprolol] | 57,0% | 43% | 58,8% | 41%
